# Results: PubChem BioAssay (NCI)
#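 Compound exposure: 48 hours, 5 concentrations, 96-well plates. TGI: total growth inhibition.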
# Test system: SK-MEL-28 melanoma
# Test: NCI-60 cell line screen, 48 h
row,Compound,TGI
1,c1ccc(-c2cnc(-c3ccc(-c4ncc(-c5ccccc5)o4)cc3)o2)cc1,> 100 µM
2,O=C(OCC(OC(=O)c1ccccc1)C(OC(=O)c1ccccc1)C(OC(=O)c1ccccc1)c1cnn(-c2ccccc2)n1)c1ccccc1 (centres undefined),> 100 µM
3,COC(=O)C1=C(O)C(C(=O)OC)[C@@]2(O)[C@@H](C(=O)OC)[C@H](C)[C@@H](C)[C@@H]1[C@@H]2C(=O)OC (some centres undefined),> 100 µM

# Test system: SF-268 CNS
# Test: NCI-60 cell line screen, 48 h
row,Compound,TGI
1,CCOC(=O)C1CN(C2CC2)CCC1=O (centres undefined),> 100 µM
2,Cc1cc2nc(-c3cc(C(C)(C)C)c(O)c(C(C)(C)C)c3)[nH]c2cc1C,> 100 µM
3,CCOC(=O)C(C)c1nc2c(Cl)c3ncccc3cc2[nH]c1=O (centres undefined),> 100 µM
4,CC(C)C1=C2CCC3(C)C(CCC4C5C6OCC5(CCC6(C)C)CCC43C)C2(C)CC1 (centres undefined),69.9 µM
5,c1ccc(-c2cnc(-c3ccc(-c4ncc(-c5ccccc5)o4)cc3)o2)cc1,> 100 µM
6,O=C(OCC(OC(=O)c1ccccc1)C(OC(=O)c1ccccc1)C(OC(=O)c1ccccc1)c1cnn(-c2ccccc2)n1)c1ccccc1 (centres undefined),> 100 µM
7,COC(=O)C1=C(O)C(C(=O)OC)[C@@]2(O)[C@@H](C(=O)OC)[C@H](C)[C@@H](C)[C@@H]1[C@@H]2C(=O)OC (some centres undefined),> 100 µM

# Test system: DU-145 prostate
# Test: NCI-60 cell line screen, 48 h
row,Compound,TGI
1,CCOC(=O)C1CN(C2CC2)CCC1=O (centres undefined),> 100 µM
2,Cc1cc2nc(-c3cc(C(C)(C)C)c(O)c(C(C)(C)C)c3)[nH]c2cc1C,> 100 µM
3,CCOC(=O)C(C)c1nc2c(Cl)c3ncccc3cc2[nH]c1=O (centres undefined),> 100 µM
4,CC(C)C1=C2CCC3(C)C(CCC4C5C6OCC5(CCC6(C)C)CCC43C)C2(C)CC1 (centres undefined),37.5 µM
5,c1ccc(-c2cnc(-c3ccc(-c4ncc(-c5ccccc5)o4)cc3)o2)cc1,> 100 µM
6,O=C(OCC(OC(=O)c1ccccc1)C(OC(=O)c1ccccc1)C(OC(=O)c1ccccc1)c1cnn(-c2ccccc2)n1)c1ccccc1 (centres undefined),> 100 µM
7,COC(=O)C1=C(O)C(C(=O)OC)[C@@]2(O)[C@@H](C(=O)OC)[C@H](C)[C@@H](C)[C@@H]1[C@@H]2C(=O)OC (some centres undefined),> 100 µM

# Test system: COLO 205 colon
# Test: NCI-60 cell line screen, 48 h
row,Compound,TGI
1,CCOC(=O)C1CN(C2CC2)CCC1=O (centres undefined),> 100 µM
2,Cc1cc2nc(-c3cc(C(C)(C)C)c(O)c(C(C)(C)C)c3)[nH]c2cc1C,> 100 µM
3,CCOC(=O)C(C)c1nc2c(Cl)c3ncccc3cc2[nH]c1=O (centres undefined),> 100 µM
4,CC(C)C1=C2CCC3(C)C(CCC4C5C6OCC5(CCC6(C)C)CCC43C)C2(C)CC1 (centres undefined),37.3 µM
5,c1ccc(-c2cnc(-c3ccc(-c4ncc(-c5ccccc5)o4)cc3)o2)cc1,> 100 µM
6,O=C(OCC(OC(=O)c1ccccc1)C(OC(=O)c1ccccc1)C(OC(=O)c1ccccc1)c1cnn(-c2ccccc2)n1)c1ccccc1 (centres undefined),> 100 µM

# Test system: SK-OV-3 ovarian
# Test: NCI-60 cell line screen, 48 h
row,Compound,TGI
1,CCOC(=O)C1CN(C2CC2)CCC1=O (centres undefined),> 100 µM
2,Cc1cc2nc(-c3cc(C(C)(C)C)c(O)c(C(C)(C)C)c3)[nH]c2cc1C,> 100 µM
3,CCOC(=O)C(C)c1nc2c(Cl)c3ncccc3cc2[nH]c1=O (centres undefined),> 100 µM
4,CC(C)C1=C2CCC3(C)C(CCC4C5C6OCC5(CCC6(C)C)CCC43C)C2(C)CC1 (centres undefined),> 100 µM
5,c1ccc(-c2cnc(-c3ccc(-c4ncc(-c5ccccc5)o4)cc3)o2)cc1,> 100 µM
6,O=C(OCC(OC(=O)c1ccccc1)C(OC(=O)c1ccccc1)C(OC(=O)c1ccccc1)c1cnn(-c2ccccc2)n1)c1ccccc1 (centres undefined),> 100 µM
7,COC(=O)C1=C(O)C(C(=O)OC)[C@@]2(O)[C@@H](C(=O)OC)[C@H](C)[C@@H](C)[C@@H]1[C@@H]2C(=O)OC (some centres undefined),> 100 µM

# Test system: RPMI-8226 leukemia
# Test: NCI-60 cell line screen, 48 h
row,Compound,TGI
1,CCOC(=O)C1CN(C2CC2)CCC1=O (centres undefined),> 100 µM
2,Cc1cc2nc(-c3cc(C(C)(C)C)c(O)c(C(C)(C)C)c3)[nH]c2cc1C,> 100 µM
3,CCOC(=O)C(C)c1nc2c(Cl)c3ncccc3cc2[nH]c1=O (centres undefined),> 100 µM
4,CC(C)C1=C2CCC3(C)C(CCC4C5C6OCC5(CCC6(C)C)CCC43C)C2(C)CC1 (centres undefined),42.9 µM
5,c1ccc(-c2cnc(-c3ccc(-c4ncc(-c5ccccc5)o4)cc3)o2)cc1,> 100 µM
6,O=C(OCC(OC(=O)c1ccccc1)C(OC(=O)c1ccccc1)C(OC(=O)c1ccccc1)c1cnn(-c2ccccc2)n1)c1ccccc1 (centres undefined),> 100 µM
7,COC(=O)C1=C(O)C(C(=O)OC)[C@@]2(O)[C@@H](C(=O)OC)[C@H](C)[C@@H](C)[C@@H]1[C@@H]2C(=O)OC (some centres undefined),> 100 µM

# Test system: UO-31 renal
# Test: NCI-60 cell line screen, 48 h
row,Compound,TGI
1,CCOC(=O)C1CN(C2CC2)CCC1=O (centres undefined),> 100 µM
2,Cc1cc2nc(-c3cc(C(C)(C)C)c(O)c(C(C)(C)C)c3)[nH]c2cc1C,> 27.4 µM
3,CCOC(=O)C(C)c1nc2c(Cl)c3ncccc3cc2[nH]c1=O (centres undefined),> 100 µM
4,CC(C)C1=C2CCC3(C)C(CCC4C5C6OCC5(CCC6(C)C)CCC43C)C2(C)CC1 (centres undefined),33.8 µM
5,c1ccc(-c2cnc(-c3ccc(-c4ncc(-c5ccccc5)o4)cc3)o2)cc1,> 100 µM
6,O=C(OCC(OC(=O)c1ccccc1)C(OC(=O)c1ccccc1)C(OC(=O)c1ccccc1)c1cnn(-c2ccccc2)n1)c1ccccc1 (centres undefined),> 100 µM
7,COC(=O)C1=C(O)C(C(=O)OC)[C@@]2(O)[C@@H](C(=O)OC)[C@H](C)[C@@H](C)[C@@H]1[C@@H]2C(=O)OC (some centres undefined),> 100 µM

# Test system: SNB-75 CNS
# Test: NCI-60 cell line screen, 48 h
row,Compound,TGI
1,CCOC(=O)C1CN(C2CC2)CCC1=O (centres undefined),> 100 µM
2,Cc1cc2nc(-c3cc(C(C)(C)C)c(O)c(C(C)(C)C)c3)[nH]c2cc1C,> 100 µM
3,CCOC(=O)C(C)c1nc2c(Cl)c3ncccc3cc2[nH]c1=O (centres undefined),> 100 µM
4,c1ccc(-c2cnc(-c3ccc(-c4ncc(-c5ccccc5)o4)cc3)o2)cc1,> 100 µM
5,COC(=O)C1=C(O)C(C(=O)OC)[C@@]2(O)[C@@H](C(=O)OC)[C@H](C)[C@@H](C)[C@@H]1[C@@H]2C(=O)OC (some centres undefined),> 100 µM

# Test system: IGROV1 ovarian
# Test: NCI-60 cell line screen, 48 h
row,Compound,TGI
1,CCOC(=O)C1CN(C2CC2)CCC1=O (centres undefined),> 100 µM
2,Cc1cc2nc(-c3cc(C(C)(C)C)c(O)c(C(C)(C)C)c3)[nH]c2cc1C,> 100 µM
3,CCOC(=O)C(C)c1nc2c(Cl)c3ncccc3cc2[nH]c1=O (centres undefined),> 100 µM
4,CC(C)C1=C2CCC3(C)C(CCC4C5C6OCC5(CCC6(C)C)CCC43C)C2(C)CC1 (centres undefined),29.2 µM
5,c1ccc(-c2cnc(-c3ccc(-c4ncc(-c5ccccc5)o4)cc3)o2)cc1,> 100 µM
6,O=C(OCC(OC(=O)c1ccccc1)C(OC(=O)c1ccccc1)C(OC(=O)c1ccccc1)c1cnn(-c2ccccc2)n1)c1ccccc1 (centres undefined),> 100 µM

# Test system: UACC-257 melanoma
# Test: NCI-60 cell line screen, 48 h
row,Compound,TGI
1,CCOC(=O)C1CN(C2CC2)CCC1=O (centres undefined),> 100 µM
2,Cc1cc2nc(-c3cc(C(C)(C)C)c(O)c(C(C)(C)C)c3)[nH]c2cc1C,> 100 µM
3,CCOC(=O)C(C)c1nc2c(Cl)c3ncccc3cc2[nH]c1=O (centres undefined),> 100 µM
4,CC(C)C1=C2CCC3(C)C(CCC4C5C6OCC5(CCC6(C)C)CCC43C)C2(C)CC1 (centres undefined),36.1 µM
5,c1ccc(-c2cnc(-c3ccc(-c4ncc(-c5ccccc5)o4)cc3)o2)cc1,> 100 µM
6,O=C(OCC(OC(=O)c1ccccc1)C(OC(=O)c1ccccc1)C(OC(=O)c1ccccc1)c1cnn(-c2ccccc2)n1)c1ccccc1 (centres undefined),> 100 µM
7,COC(=O)C1=C(O)C(C(=O)OC)[C@@]2(O)[C@@H](C(=O)OC)[C@H](C)[C@@H](C)[C@@H]1[C@@H]2C(=O)OC (some centres undefined),> 100 µM

# Test system: HT29 colon
# Test: NCI-60 cell line screen, 48 h
row,Compound,TGI
1,CCOC(=O)C1CN(C2CC2)CCC1=O (centres undefined),> 100 µM
2,Cc1cc2nc(-c3cc(C(C)(C)C)c(O)c(C(C)(C)C)c3)[nH]c2cc1C,> 100 µM
3,CCOC(=O)C(C)c1nc2c(Cl)c3ncccc3cc2[nH]c1=O (centres undefined),> 100 µM
4,CC(C)C1=C2CCC3(C)C(CCC4C5C6OCC5(CCC6(C)C)CCC43C)C2(C)CC1 (centres undefined),37 µM
5,c1ccc(-c2cnc(-c3ccc(-c4ncc(-c5ccccc5)o4)cc3)o2)cc1,> 100 µM
6,O=C(OCC(OC(=O)c1ccccc1)C(OC(=O)c1ccccc1)C(OC(=O)c1ccccc1)c1cnn(-c2ccccc2)n1)c1ccccc1 (centres undefined),> 100 µM
7,COC(=O)C1=C(O)C(C(=O)OC)[C@@]2(O)[C@@H](C(=O)OC)[C@H](C)[C@@H](C)[C@@H]1[C@@H]2C(=O)OC (some centres undefined),> 100 µM

# Test system: RXF 393 renal
# Test: NCI-60 cell line screen, 48 h
row,Compound,TGI
1,CCOC(=O)C1CN(C2CC2)CCC1=O (centres undefined),> 100 µM
2,Cc1cc2nc(-c3cc(C(C)(C)C)c(O)c(C(C)(C)C)c3)[nH]c2cc1C,> 100 µM
3,CCOC(=O)C(C)c1nc2c(Cl)c3ncccc3cc2[nH]c1=O (centres undefined),> 100 µM
4,CC(C)C1=C2CCC3(C)C(CCC4C5C6OCC5(CCC6(C)C)CCC43C)C2(C)CC1 (centres undefined),48.8 µM
5,c1ccc(-c2cnc(-c3ccc(-c4ncc(-c5ccccc5)o4)cc3)o2)cc1,> 100 µM
6,O=C(OCC(OC(=O)c1ccccc1)C(OC(=O)c1ccccc1)C(OC(=O)c1ccccc1)c1cnn(-c2ccccc2)n1)c1ccccc1 (centres undefined),> 100 µM
7,COC(=O)C1=C(O)C(C(=O)OC)[C@@]2(O)[C@@H](C(=O)OC)[C@H](C)[C@@H](C)[C@@H]1[C@@H]2C(=O)OC (some centres undefined),72.3 µM

# Test system: OVCAR-5 ovarian
# Test: NCI-60 cell line screen, 48 h
row,Compound,TGI
1,CCOC(=O)C1CN(C2CC2)CCC1=O (centres undefined),> 100 µM
2,Cc1cc2nc(-c3cc(C(C)(C)C)c(O)c(C(C)(C)C)c3)[nH]c2cc1C,> 100 µM
3,CCOC(=O)C(C)c1nc2c(Cl)c3ncccc3cc2[nH]c1=O (centres undefined),> 100 µM
4,CC(C)C1=C2CCC3(C)C(CCC4C5C6OCC5(CCC6(C)C)CCC43C)C2(C)CC1 (centres undefined),> 100 µM
5,c1ccc(-c2cnc(-c3ccc(-c4ncc(-c5ccccc5)o4)cc3)o2)cc1,> 100 µM
6,O=C(OCC(OC(=O)c1ccccc1)C(OC(=O)c1ccccc1)C(OC(=O)c1ccccc1)c1cnn(-c2ccccc2)n1)c1ccccc1 (centres undefined),> 100 µM
7,COC(=O)C1=C(O)C(C(=O)OC)[C@@]2(O)[C@@H](C(=O)OC)[C@H](C)[C@@H](C)[C@@H]1[C@@H]2C(=O)OC (some centres undefined),> 100 µM

# Test system: HCT-15 colon
# Test: NCI-60 cell line screen, 48 h
row,Compound,TGI
1,CCOC(=O)C1CN(C2CC2)CCC1=O (centres undefined),> 100 µM
2,Cc1cc2nc(-c3cc(C(C)(C)C)c(O)c(C(C)(C)C)c3)[nH]c2cc1C,> 100 µM
3,CCOC(=O)C(C)c1nc2c(Cl)c3ncccc3cc2[nH]c1=O (centres undefined),> 100 µM
4,CC(C)C1=C2CCC3(C)C(CCC4C5C6OCC5(CCC6(C)C)CCC43C)C2(C)CC1 (centres undefined),40.7 µM
5,c1ccc(-c2cnc(-c3ccc(-c4ncc(-c5ccccc5)o4)cc3)o2)cc1,> 100 µM
6,O=C(OCC(OC(=O)c1ccccc1)C(OC(=O)c1ccccc1)C(OC(=O)c1ccccc1)c1cnn(-c2ccccc2)n1)c1ccccc1 (centres undefined),> 100 µM
7,COC(=O)C1=C(O)C(C(=O)OC)[C@@]2(O)[C@@H](C(=O)OC)[C@H](C)[C@@H](C)[C@@H]1[C@@H]2C(=O)OC (some centres undefined),> 100 µM

# Test system: M14 melanoma
# Test: NCI-60 cell line screen, 48 h
row,Compound,TGI
1,CCOC(=O)C1CN(C2CC2)CCC1=O (centres undefined),> 100 µM
2,Cc1cc2nc(-c3cc(C(C)(C)C)c(O)c(C(C)(C)C)c3)[nH]c2cc1C,> 100 µM
3,CCOC(=O)C(C)c1nc2c(Cl)c3ncccc3cc2[nH]c1=O (centres undefined),> 100 µM
4,CC(C)C1=C2CCC3(C)C(CCC4C5C6OCC5(CCC6(C)C)CCC43C)C2(C)CC1 (centres undefined),41.6 µM
